Where two headings read alike, the source gives them in different places.
Columns and labels:
[1] = system: breast cancer cell line T-47D; experiment: Cell growth assay with breast cancer cell line T-47D; type: cell-based; conditions: T-47D cells, PrestoBlue Cell Viability reagent, read-out: IC50 inhibition of cell growth
Procedure: […] of the complete medium was then gently dispersed over the surface of the cell layer for several times. The cell concentration was adjusted to 1×10^4 cells/mL with the complete medium. A 100 μL aliquot of the cell suspension was added to the well of a 96-well plate, and the plate was incubated overnight at 37° C. under 5% CO2 with saturated humidity. On the next day, the medium in each well was aspirated and replaced with a 100 μL aliquot of pre-warmed complete medium at 37° C. in the presence or absence of the test compounds at various concentrations from 0-100 μM. The test compounds were dissolved in DMSO, and the final DMSO concentration in the cell culture was no more than 1%. The plate was incubated for 72 hours at 37° C. under 5% CO2 with saturated humidity. At end of the cell culture a 10 μL aliquot of PrestoBlue® Cell Viability reagent (ThermoFisher Scientific) was added into the well and the plate was incubated at 37° C. for 30 min. The absorption at 570 and 600 nm were measured with a SpectraMax Microplate reader (Molecular Devices), The absorbance at […] was normalized to that at 600 nm.

PDGFRα(T674I) = molecular target: T1, PDGFRα(T674I) (Homo sapiens, UniProt P16234, T674I); experiment: Off-chip Mobility Shift Assay (MSA) kinase inhibition; type: biochemical; conditions: inhibitor concentration 0.01 μM
T1 construct: purchased Carna Biosciences
Procedure: (§1) Off-chip Mobility Shift Assay (MSA) by Cama Biosciences, Inc (Natick, Mass.) a used for measuring the kinase activity and inhibition. • 1) The 5 μL of x4 compound solution, 5 μL of x4 Substrate/ATP/Metal solution, and 10 μL of x2 kinase solution were prepared with assay buffer (20 mM HEPES, 0.01% Triton X100, 2 mM DTT, pH 7.5) and mixed and incubated in a well of polypropylene 384 well microplate for 1 or 5 hour(s)* at room temperature. (*; depending on kinase) • 2) 70 μL of Termination Buffer (QuickScout Screening Assist A; Cama Biosciences) was added to the welt • 3) The reaction mixture was applied to LabChip system (Perkin Elmer), and the product and substrate peptide peaks were separated and quantitated. • 4) The kinase reaction was evaluated by the product ratio calculated from peak heights of product (P) and substrate (S) peptides (P/(P+S)). • 5) The reaction conditions were followed according to assay protocols of Ca n Biosciences, Inc (BMA 3F, 1-5-5 Minatojima-Minamimachi, Chuo-ku, Kobe 650-0047, Japan; www.carnabio.com). • 6 Data analysis: The readout value of reaction control (complete reaction mixture) was set as a 0% inhibition, and the readout value of background (Enzyme (−)) was set as a 100% inhibition, then the percent inhibition of each test solution was calculated, […]

PDGFRα(D842V) = molecular target: T2, PDGFRα(D842V) (Homo sapiens, UniProt P16234, D842V); experiment: as above; type: biochemical; conditions: inhibitor concentration 0.01 μM
T2 construct: purchased Carna Biosciences
Procedure: as §1

PDGFRα(V561D) = molecular target: T3, PDGFRα(V561D) (Homo sapiens, UniProt P16234, V561D); experiment: as above; type: biochemical; conditions: inhibitor concentration 0.01 μM
T3 construct: purchased Carna Biosciences
Procedure: as §1

PDGFRα = molecular target: T4, PDGFRα (Homo sapiens, UniProt P16234); experiment: as above; type: biochemical; conditions: inhibitor concentration 0.01 μM
T4 construct: purchased Carna Biosciences
Procedure: (§2) Off-chip Mobility Shift Assay (MSA) by Cama Biosciences, Inc (Natick, Mass.) a used for measuring the kinase activity and inhibition. • 1) The 5 μL of x4 compound solution, 5 μL of x4 Substrate/ATP/Metal solution, and 10 μL of x2 kinase solution were prepared with assay buffer (20 mM HEPES, 0.01% Triton X100, 2 mM DTT, pH 7.5) and mixed and incubated in a well of polypropylene 384 well microplate for 1 or 5 hour(s)* at room temperature.

KIT(T670I) = molecular target: T5, KIT(T670I) (Homo sapiens, UniProt P10721, T670I); experiment: as above; type: biochemical; conditions: inhibitor concentration 0.01 μM
T5 construct: purchased Carna Biosciences
Procedure: as §2

BRAF = molecular target: T6, BRAF (Homo sapiens, UniProt P15056); experiment: as above; type: biochemical; conditions: inhibitor concentration 0.01 μM
T6 construct: purchased Carna Biosciences
Procedure: as §2

JAK2 = molecular target: T7, JAK2 (Homo sapiens, UniProt O60674); experiment: as above; type: biochemical; conditions: inhibitor concentration 0.01 μM
T7 construct: purchased Carna Biosciences
Procedure: as §2

JAK1 = molecular target: T8, JAK1 (Homo sapiens, UniProt P23458); experiment: as above; type: biochemical; conditions: inhibitor concentration 0.01 μM
T8 construct: purchased Carna Biosciences
Procedure: as §2

LCK = molecular target: T9, LCK (Homo sapiens, UniProt P06239); experiment: as above; type: biochemical; conditions: inhibitor concentration 0.01 μM
T9 construct: purchased Carna Biosciences
Procedure: as §2

RAF1 = molecular target: T10, RAF1 (Homo sapiens, UniProt P04049); experiment: as above; type: biochemical; conditions: inhibitor concentration 0.01 μM
T10 construct: purchased Carna Biosciences
Procedure: as §2

KIT = molecular target: T11, KIT (Homo sapiens, UniProt P10721); experiment: as above; type: biochemical; conditions: inhibitor concentration 0.01 μM
T11 construct: purchased Carna Biosciences
Procedure: as §2

JAK3 = molecular target: T12, JAK3 (Homo sapiens, UniProt P52333); experiment: as above; type: biochemical; conditions: inhibitor concentration 0.01 μM
T12 construct: purchased Carna Biosciences
T12 sequence (P52333 1-1124): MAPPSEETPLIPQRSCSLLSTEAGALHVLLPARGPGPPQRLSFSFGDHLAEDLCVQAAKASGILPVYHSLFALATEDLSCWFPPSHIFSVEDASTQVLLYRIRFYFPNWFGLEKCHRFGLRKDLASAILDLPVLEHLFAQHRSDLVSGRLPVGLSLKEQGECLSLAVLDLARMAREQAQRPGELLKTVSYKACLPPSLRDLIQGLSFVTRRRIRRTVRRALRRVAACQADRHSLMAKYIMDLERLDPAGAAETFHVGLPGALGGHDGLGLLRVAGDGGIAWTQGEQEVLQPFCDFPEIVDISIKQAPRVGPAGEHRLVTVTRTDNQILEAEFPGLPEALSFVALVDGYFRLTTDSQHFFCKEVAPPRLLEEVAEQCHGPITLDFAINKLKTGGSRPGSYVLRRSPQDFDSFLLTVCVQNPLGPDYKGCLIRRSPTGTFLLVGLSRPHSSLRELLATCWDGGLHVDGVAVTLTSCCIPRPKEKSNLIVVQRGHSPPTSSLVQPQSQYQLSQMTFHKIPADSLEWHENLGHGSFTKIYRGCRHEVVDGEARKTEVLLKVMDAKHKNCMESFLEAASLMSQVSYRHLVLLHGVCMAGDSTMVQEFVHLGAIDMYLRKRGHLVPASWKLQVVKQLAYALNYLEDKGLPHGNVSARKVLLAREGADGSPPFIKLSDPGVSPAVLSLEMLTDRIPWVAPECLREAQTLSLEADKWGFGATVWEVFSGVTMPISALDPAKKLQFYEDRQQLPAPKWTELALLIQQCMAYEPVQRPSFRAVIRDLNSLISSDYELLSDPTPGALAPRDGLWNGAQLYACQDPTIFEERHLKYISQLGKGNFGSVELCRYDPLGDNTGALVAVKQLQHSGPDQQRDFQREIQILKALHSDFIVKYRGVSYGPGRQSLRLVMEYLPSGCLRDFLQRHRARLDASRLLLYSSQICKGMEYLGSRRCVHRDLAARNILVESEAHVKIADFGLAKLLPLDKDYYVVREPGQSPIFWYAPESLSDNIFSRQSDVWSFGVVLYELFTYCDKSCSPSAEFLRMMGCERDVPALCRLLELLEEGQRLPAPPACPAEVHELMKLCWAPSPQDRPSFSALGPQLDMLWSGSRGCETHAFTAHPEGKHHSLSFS
Procedure: as §2

FGR = molecular target: T13, FGR (Homo sapiens, UniProt P09769); experiment: as above; type: biochemical; conditions: inhibitor concentration 0.01 μM
T13 construct: purchased Carna Biosciences
Procedure: as §2

BRK = molecular target: T14, BRK (Homo sapiens, UniProt Q13882); experiment: as above; type: biochemical; conditions: inhibitor concentration 0.01 μM
T14 construct: purchased Carna Biosciences
Procedure: as §2

PDGFRβ = molecular target: T15, PDGFRβ (Homo sapiens, UniProt P09619); experiment: as above; type: biochemical; conditions: inhibitor concentration 0.01 μM
T15 construct: purchased Carna Biosciences
Procedure: as §2

KIT(V560G) = molecular target: T16, KIT(V560G) (Homo sapiens, UniProt P10721, V560G); experiment: as above; type: biochemical; conditions: inhibitor concentration 0.01 μM
T16 construct: purchased Carna Biosciences
Procedure: as §2

SRM = molecular target: T17, SRM (Homo sapiens, UniProt Q9H3Y6); experiment: as above; type: biochemical; conditions: inhibitor concentration 0.01 μM
T17 construct: purchased Carna Biosciences
Procedure: as §2

KIT(D816V) = molecular target: T18, KIT(D816V) (Homo sapiens, UniProt P10721, D816V); experiment: as above; type: biochemical; conditions: inhibitor concentration 0.01 μM
T18 construct: purchased Carna Biosciences
Procedure: as §2

BRAF(V600E) = molecular target: T19, BRAF(V600E) (Homo sapiens, UniProt P15056, V600E); experiment: as above; type: biochemical; conditions: inhibitor concentration 0.01 μM
T19 construct: purchased Carna Biosciences
Procedure: as §2

SRC = molecular target: T20, SRC (Homo sapiens, UniProt P12931); experiment: as above; type: biochemical; conditions: inhibitor concentration 0.01 μM
T20 construct: purchased Carna Biosciences
Procedure: as §2

T2 sequence (P16234 24-1089 D842V): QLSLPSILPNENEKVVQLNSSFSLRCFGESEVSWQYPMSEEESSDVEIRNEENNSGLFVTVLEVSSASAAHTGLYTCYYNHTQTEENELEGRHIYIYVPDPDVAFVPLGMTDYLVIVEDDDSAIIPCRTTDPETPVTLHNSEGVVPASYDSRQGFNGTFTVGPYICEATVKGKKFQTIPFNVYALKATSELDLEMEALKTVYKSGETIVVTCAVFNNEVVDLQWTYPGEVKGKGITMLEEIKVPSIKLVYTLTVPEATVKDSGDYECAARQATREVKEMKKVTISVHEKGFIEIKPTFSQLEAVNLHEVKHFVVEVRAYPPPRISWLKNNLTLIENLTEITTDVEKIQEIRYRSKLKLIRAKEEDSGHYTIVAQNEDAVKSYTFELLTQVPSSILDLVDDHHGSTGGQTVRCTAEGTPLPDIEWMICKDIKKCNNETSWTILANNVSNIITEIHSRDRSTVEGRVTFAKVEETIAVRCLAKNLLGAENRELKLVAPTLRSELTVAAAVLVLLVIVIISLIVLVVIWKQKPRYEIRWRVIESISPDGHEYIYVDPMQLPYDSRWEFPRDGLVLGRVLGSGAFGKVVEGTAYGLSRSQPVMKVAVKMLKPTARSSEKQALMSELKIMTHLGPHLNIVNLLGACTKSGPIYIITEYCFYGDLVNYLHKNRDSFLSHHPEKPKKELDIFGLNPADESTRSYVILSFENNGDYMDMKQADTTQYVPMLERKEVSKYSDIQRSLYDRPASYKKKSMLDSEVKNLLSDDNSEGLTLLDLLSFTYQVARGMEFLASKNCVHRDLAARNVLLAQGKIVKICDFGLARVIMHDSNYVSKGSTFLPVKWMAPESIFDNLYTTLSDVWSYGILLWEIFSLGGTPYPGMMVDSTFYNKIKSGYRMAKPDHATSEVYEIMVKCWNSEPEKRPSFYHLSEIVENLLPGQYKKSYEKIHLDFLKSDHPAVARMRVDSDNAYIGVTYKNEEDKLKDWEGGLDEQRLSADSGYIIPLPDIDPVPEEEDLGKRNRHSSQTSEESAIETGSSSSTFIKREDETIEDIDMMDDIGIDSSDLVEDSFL
T13 sequence (P09769 whole entry): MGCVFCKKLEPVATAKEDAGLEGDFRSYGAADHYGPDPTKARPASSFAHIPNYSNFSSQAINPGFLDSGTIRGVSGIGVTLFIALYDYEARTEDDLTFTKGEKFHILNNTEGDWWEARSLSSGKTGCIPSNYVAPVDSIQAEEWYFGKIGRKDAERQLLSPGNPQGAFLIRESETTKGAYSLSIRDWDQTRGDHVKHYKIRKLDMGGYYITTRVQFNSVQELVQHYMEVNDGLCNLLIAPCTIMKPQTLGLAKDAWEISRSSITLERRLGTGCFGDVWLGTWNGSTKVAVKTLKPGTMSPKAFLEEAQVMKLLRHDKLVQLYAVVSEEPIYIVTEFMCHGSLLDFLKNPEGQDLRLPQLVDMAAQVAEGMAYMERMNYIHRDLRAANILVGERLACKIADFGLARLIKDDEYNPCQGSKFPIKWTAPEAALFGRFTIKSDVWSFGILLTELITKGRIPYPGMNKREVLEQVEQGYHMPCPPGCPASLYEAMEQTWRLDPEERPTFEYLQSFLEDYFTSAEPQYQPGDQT
T6 sequence (P15056 whole entry): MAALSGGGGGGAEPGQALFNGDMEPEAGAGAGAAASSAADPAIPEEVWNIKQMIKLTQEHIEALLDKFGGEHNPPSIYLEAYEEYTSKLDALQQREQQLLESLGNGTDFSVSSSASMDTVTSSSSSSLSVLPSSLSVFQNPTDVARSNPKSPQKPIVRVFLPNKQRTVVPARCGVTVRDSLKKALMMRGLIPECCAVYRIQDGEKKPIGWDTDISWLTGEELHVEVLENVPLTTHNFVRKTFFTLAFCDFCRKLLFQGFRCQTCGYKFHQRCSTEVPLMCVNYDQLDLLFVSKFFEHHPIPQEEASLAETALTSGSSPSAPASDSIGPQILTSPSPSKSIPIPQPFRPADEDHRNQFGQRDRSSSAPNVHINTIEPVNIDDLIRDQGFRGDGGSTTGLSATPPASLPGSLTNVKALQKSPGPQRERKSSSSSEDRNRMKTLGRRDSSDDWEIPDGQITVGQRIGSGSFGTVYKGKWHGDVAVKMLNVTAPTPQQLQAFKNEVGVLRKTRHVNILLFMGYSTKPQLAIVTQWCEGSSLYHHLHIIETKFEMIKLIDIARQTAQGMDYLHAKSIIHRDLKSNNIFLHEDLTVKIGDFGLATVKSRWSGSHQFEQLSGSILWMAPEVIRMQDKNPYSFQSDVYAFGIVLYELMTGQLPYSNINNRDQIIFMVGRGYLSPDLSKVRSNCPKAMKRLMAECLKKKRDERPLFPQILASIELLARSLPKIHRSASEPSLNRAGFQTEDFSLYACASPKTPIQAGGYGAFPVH
T9 sequence (P06239 whole entry): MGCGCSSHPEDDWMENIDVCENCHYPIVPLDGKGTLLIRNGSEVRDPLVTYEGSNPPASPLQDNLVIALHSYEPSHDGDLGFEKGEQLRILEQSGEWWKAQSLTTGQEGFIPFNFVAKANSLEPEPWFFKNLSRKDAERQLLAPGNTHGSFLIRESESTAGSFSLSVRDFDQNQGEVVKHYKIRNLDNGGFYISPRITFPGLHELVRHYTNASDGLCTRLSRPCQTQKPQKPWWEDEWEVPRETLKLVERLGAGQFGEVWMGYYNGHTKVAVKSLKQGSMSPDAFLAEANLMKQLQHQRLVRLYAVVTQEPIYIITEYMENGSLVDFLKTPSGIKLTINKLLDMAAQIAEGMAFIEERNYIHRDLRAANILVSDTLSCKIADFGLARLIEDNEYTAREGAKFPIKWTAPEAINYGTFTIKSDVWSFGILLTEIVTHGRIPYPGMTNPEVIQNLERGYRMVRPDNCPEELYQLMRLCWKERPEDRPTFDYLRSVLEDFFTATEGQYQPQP
T4 sequence (P16234 24-1089): as the sequence (P16234 24-1089 D842V) above, with V819D counted along it
T20 sequence (P12931 whole entry): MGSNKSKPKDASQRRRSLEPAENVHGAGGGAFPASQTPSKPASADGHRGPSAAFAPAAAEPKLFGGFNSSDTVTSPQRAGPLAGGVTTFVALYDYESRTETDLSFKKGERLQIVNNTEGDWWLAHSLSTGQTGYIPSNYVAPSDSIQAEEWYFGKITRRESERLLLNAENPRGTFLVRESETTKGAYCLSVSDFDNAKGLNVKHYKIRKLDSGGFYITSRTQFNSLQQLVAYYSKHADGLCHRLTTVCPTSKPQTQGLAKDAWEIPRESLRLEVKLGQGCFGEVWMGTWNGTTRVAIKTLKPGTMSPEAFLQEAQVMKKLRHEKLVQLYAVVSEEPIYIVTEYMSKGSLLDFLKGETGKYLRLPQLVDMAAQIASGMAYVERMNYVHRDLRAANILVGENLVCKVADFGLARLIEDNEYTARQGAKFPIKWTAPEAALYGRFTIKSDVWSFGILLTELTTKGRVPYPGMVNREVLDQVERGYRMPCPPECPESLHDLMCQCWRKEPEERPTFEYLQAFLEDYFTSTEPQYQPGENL
T8 sequence (P23458 whole entry): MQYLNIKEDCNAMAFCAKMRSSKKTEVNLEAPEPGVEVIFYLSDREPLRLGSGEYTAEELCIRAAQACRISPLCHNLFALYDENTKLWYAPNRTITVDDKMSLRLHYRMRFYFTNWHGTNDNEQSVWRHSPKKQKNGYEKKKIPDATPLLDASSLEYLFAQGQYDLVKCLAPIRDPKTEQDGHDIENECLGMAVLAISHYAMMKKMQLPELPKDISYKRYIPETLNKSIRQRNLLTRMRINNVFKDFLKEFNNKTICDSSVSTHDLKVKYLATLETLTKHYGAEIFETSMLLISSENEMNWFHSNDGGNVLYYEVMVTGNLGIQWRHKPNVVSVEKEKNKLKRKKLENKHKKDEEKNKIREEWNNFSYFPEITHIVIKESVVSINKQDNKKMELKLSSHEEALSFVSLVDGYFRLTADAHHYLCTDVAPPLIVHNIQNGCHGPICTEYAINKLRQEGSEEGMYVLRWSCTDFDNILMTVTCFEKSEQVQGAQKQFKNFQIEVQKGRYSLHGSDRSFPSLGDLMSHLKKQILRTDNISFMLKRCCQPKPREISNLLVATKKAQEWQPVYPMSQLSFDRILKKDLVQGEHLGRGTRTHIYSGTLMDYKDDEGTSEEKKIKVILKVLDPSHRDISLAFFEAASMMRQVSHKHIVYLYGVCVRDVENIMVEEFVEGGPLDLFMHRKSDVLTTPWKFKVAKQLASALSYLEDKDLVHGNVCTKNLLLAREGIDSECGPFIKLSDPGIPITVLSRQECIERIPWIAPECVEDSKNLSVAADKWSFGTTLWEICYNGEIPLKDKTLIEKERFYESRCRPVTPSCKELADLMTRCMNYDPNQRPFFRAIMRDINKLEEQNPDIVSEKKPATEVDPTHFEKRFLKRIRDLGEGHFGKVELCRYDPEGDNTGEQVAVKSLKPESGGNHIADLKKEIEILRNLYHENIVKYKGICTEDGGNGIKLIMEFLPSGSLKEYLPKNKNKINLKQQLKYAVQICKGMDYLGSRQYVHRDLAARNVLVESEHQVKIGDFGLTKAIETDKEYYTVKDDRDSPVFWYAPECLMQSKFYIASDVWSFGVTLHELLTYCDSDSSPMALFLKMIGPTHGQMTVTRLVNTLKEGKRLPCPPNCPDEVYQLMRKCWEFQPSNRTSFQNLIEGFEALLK
T19 sequence (P15056 whole entry V600E): as the sequence (P15056 whole entry) above, with V600E counted along it
T3 sequence (P16234 24-1089 V561D): as the sequence (P16234 24-1089 D842V) above, with V538D, V819D counted along it
T1 sequence (P16234 24-1089 T674I): as the sequence (P16234 24-1089 D842V) above, with T651I, V819D counted along it

inhibition at 0.01 µM (PDGFRα(T674I)) [%]	inhibition at 0.01 µM (PDGFRα(D842V)) [%]	inhibition at 0.01 µM (PDGFRα(V561D)) [%]	inhibition at 0.01 µM (PDGFRα) [%]	inhibition at 0.01 µM (KIT(T670I)) [%]	inhibition at 0.01 µM (BRAF) [%]	inhibition at 0.01 µM (JAK2) [%]	inhibition at 0.01 µM (JAK1) [%]	inhibition at 0.01 µM (LCK) [%]	inhibition at 0.01 µM (RAF1) [%]	inhibition at 0.01 µM (KIT) [%]	inhibition at 0.01 µM (JAK3) [%]	inhibition at 0.01 µM (FGR) [%]	inhibition at 0.01 µM (BRK) [%]	inhibition at 0.01 µM (PDGFRβ) [%]	inhibition at 0.01 µM (KIT(V560G)) [%]	inhibition at 0.01 µM (SRM) [%]	inhibition at 0.01 µM (KIT(D816V)) [%]	inhibition at 0.01 µM (BRAF(V600E)) [%]	inhibition at 0.01 µM (SRC) [%]	SMILES	also measured
–	–	–	–	–	–	–	–	–	–	–	–	–	–	–	–	–	–	–	–	O=C(c1c(F)ccc(NS(=O)(=O)CCO)c1F)c1c[nH]c2ncc(-c3ccc(Cl)cc3)cc12 [200-149, N-[3-[5-(4-chlorophenyl)pyrrolo[2,3-b]pyridine-3-carbonyl]-2,4-difluorophenyl]-2-hydroxyethanesulfonamide]	IC50 ([1]; Homo sapiens, T47D, 72 hours): < 20 µM
> 30	> 30	> 30	> 20	> 30	> 30	> 30	> 30	> 30	> 30	> 30	> 30	> 30	> 30	> 20	> 30	> 30	> 30	> 30	> 30	C/C=C/S(=O)(=O)Nc1ccc(F)c(C(=O)c2c[nH]c3ncc(-c4ccc(Cl)cc4)cc23)c1F [200-93a]	IC50 ([1]; 72 hours): > 20 µM
< 20	< 20	< 20	< 20	< 20	< 20	< 20	< 20	> 20	> 20	< 20	< 20	< 20	> 20	< 20	< 20	> 20	< 20	> 20	< 20	COCCCS(=O)(=O)Nc1ccc(F)c(C(=O)c2c[nH]c3ncc(-c4ccc(Cl)cc4)cc23)c1F [200-123, N-[3-[5-(4-chlorophenyl)pyrrolo[2,3-b]pyridine-3-carbonyl]-2,4-difluoro-phenyl]-3-methoxypropane-1-sulfonamide]	IC50 ([1]; Homo sapiens, T47D, 72 h): < 20 µM
< 20	< 20	< 20	> 20	< 20	< 20	< 20	< 20	> 20	> 20	< 20	< 20	< 20	> 20	< 20	< 20	> 20	< 20	< 20	< 20	COCCS(=O)(=O)Nc1ccc(F)c(C(=O)c2c[nH]c3ncc(-c4ccc(Cl)cc4)cc23)c1F [200-139, N-[3-[5-(4-chlorophenyl)pyrrolo[2,3-b]pyridine-3-carbonyl]-2,4-difluorophenyl]-2-methoxyethanesulfonamide]	IC50 ([1]; Homo sapiens, T47D, 72 h): < 20 µM

From US10106538B2, “Inhibitors of protein kinases” (PRINCETON DRUG DISCOVERY INC, priority 2015, dated 2018)
